Tests used:
[1] = test system: HDAC (HeLa nuclear extract); experiment: Test for evaluation of an HDAC inhibitory effect (HDAC Fluorimetric Assay/Drug Discovery Kit, Biomol); type: biochemical; conditions: final concentration of test compound 30 μM, rates of more than 100% are shown as 100%
[2] = test system: TM-1 cells (human trabecular meshwork cell line); experiment: Test for evaluation of effect of morphological change on trabecular meshwork cells (cell shape index); type: cell-based; conditions: 10 μM, 24 hours, control CSI 0.679, lower CSI indicates greater morphological change
[3] = test system: male Japanese White rabbits; experiment: Test for evaluation of intraocular pressure-lowering effect by intracameral administration; type: in vivo; conditions: 1 mM administration liquid, 20 μL intracameral, 8 or 9 hours after administration, vs vehicle control group, 6 cases
Method: In order to evaluate an intraocular pressure-lowering effect of the present compounds, a test for evaluation of intraocular pressure-lowering effect by intracameral administration of a drug using male Japanese White rabbits was performed.
A test compound was dissolved or suspended in physiological saline containing 0.5% dimethyl sulfoxide, whereby a 0.1 mM or 1 mM test compound administration liquid was prepared.
One drop of 0.4% oxybuprocaine hydrochloride eye drop was instilled into both eyes of each male Japanese White rabbit to achieve local anesthesia, and thereafter, the intraocular pressure was measured using an applanation tonometer. Then, by using a syringe fitted with a 30-gauge needle, the test compound administration liquid (20 μL) was intracamerally administered to one eye. As a control, 20 μL of the vehicle (physiological saline containing 0.5% dimethyl sulfoxide) for the test compound was intracamerally administered. After the lapse of a certain period of time from the administration of the test compound or vehicle, one drop of 0.4% oxybuprocaine hydrochloride eye drop was instilled into the administered eye to achieve local anesthesia, and thereafter, the intraocular pressure was measured using an applanation tonometer.
The intraocular pressure-lowering effect of each test compound was evaluated by calculating an intraocular pressure reduction rate. The intraocular pressure reduction rate (%) was calculated using the following equation.
(Intraocular Pressure Reduction Rate(%))=100×[{(Average Value of Intraocular Pressure of Control Group)−(Average Value of Intraocular Pressure of Each Test Compound Administration Group)}/(Average Value of Intraocular Pressure of Control Group)]

In the case of `CC(/C=C/C(=O)NO)=C\[C@@H](C)C(=O)c1ccc(N(C)C)cc1` [Trichostatin A, reference compound], the “Enzyme Inhibitory Rate (%)” value [1] is reported as 100%, the CSI [2] is reported as 0.496 and the “Intraocular Pressure Reduction Rate (%)” value [3] is reported as 18%.

Reference: patent US20100056522A1, “INTRAOCULAR PRESSURE-LOWERING AGENT COMPRISING COMPOUND HAVING HISTONE DEACETYLASE INHIBITOR EFFECT AS ACTIVE INGREDIENT” (Santen Pharmaceutical Co., Ltd., priority 2007, published 2010)
